“Also recorded” adds a separate entry of the source.
Columns and labels:
Assay type in all cases: in vivo, BALB/c mice
[1] = tested on: ENA polypeptide antibodies (anti-Sm, anti-Rib, anti-ssA, anti-ssB); experiment: Serologic detection of ENA polypeptide antibodies by immunoblotting in serum of UV + LPS lupus model mice; set-up: key to Anti-Rib: (+): positive; (−): negative; key to Anti-Sm / Anti-ssA / Anti-ssB: (+): positive; (−): negative; (++++): intenseintensity; (+++): stronger fluorescent intensity; conditions: for Anti-Rib / Anti-Sm / Anti-ssA / Anti-ssB: intragastric; for ENA polypeptide antibodies found positive (FIG. 1): treated 14 days
Experimental: The back of mice was shaved and acutely exposed to Ultraviolet of 2 h/d*3 d, with a distance of 30 cm. After exposure to UV, 2.5 mg/kg of LPS was administrated once by ip, and after 24 h, the model was successfully established; the mice in the normal control group received normal saline via ip. 24 h after injection of LPS (ip), medicines were given to the model mice by intragastric administration. Chlorogenic acid test groups received high, middle, and low doses of medicines, by intragastric administration at a respective dosage of 10 mg/kg*d, 20 mg/kg*d, and 40 mg/kg*d. The positive control group A received 2 mg/kg*d of artesunate by stomach perfusion, while the positive control group B received 1 mg/kg*d of prednisone by stomach perfusion. Mice in the model and normal control group all received 0.4 ml/mouse normal saline by gavage. After 15 days of administration, animals in each group were taken blood by separating eyeballs on days 14, 21, 28, and after cultured in water bath at 37° C. for 1 h, the blood sample was centrifugated at 2000 r/min for 5 min, to draw serum for use. On day 21, after blood collection, animals were sacrificed by dislocation, followed by collection of liver and kidney, and they were placed in fixative solutions of electron microscope and light microscrope, respectively. Serum of mice was diluted at 1:100 with special buffer solution of Shenzhen Hengjia, and then 200 μL of diluted serum was respectively added to the reactive tank with corresponding number, cultured in the incubator at 37° C. for 30 min, and washed with the buffer solution four times, 2 min for each time; 200 μL of diluted biotin goat anti-mouse IgG (1:100) was added, cultured in the incubator at 37° C. for 30 min, and then washed with the buffer solution four times, 2 min for each time; 100 μL of diluted HRP-avidin (1:100) was added, cultured in the incubator at 37° C. for 30 min, and then washed as mentioned-above; reactive solutions A and B were added till appearance of positive bands, then washed with the buffer solution. Compared with the standard bands of ENA polypeptide antibody spectrum in the same kit, if the positive bands appeared at 28/29,13.5 ku polypeptide; 15,16.5,38 kupolypeptide; 52 kupolypeptide and 47/48,45 kupolypeptide, that can be determined as anti-Sm, anti-Rib, anti-ssA, and anti-ssB positive antibody. Serum was diluted with PBS at 1:40, then 20-30 μL of diluted serum was dropped into the scrobiculus of HEp-2 cell sheets, each cell sheet for each group. In the process of dropping serum, it should be noted that the surface of cell sheet can not be touched. After addition of serum, cell sheet was placed in wet box and kept for 30 min at room temperature (25° C.). After 30 min, the cell sheet was taken out, and serum was carefully washed out with PBS, then carefully washed twice with PBS, 5 min for each time; after washing, the remained PBS was removed by special absorbent paper of […] company (In this process, it should be noted that becoming dry of cell substrates will affect the results). 20-30 μL of diluted (PBS, 1:100) FITC goat anti-mouse IgG was added by dropping, and then incubated in wet box at room temperature for 30 min. After washing with PBS, steps were same to above. The remained PBS was removed by absorbent paper, and 1-2 drops of fluorescent mounting media were added to the cell sheet. The cover glass was mounted, observed under Olympus BH-2 universal microscope, and then photographed.

ANA = experiment: Serologic detection of ANA by immunofluorescence on HEp-2 cell sheets, serum of UV + LPS lupus model mice; conditions: chlorogenic acid high dose, ×200
Experimental: The back of mice was shaved and acutely exposed to Ultraviolet of 2 h/d*3 d, with a distance of 30 cm. After exposure to UV, 2.5 mg/kg of LPS was administrated once by ip, and after 24 h, the model was successfully established; the mice in the normal control group received normal saline via ip. 24 h after injection of LPS (ip), medicines were given to the model mice by intragastric administration. Chlorogenic acid test groups received high, middle, and low doses of medicines, by intragastric administration at a respective dosage of 10 mg/kg*d, 20 mg/kg*d, and 40 mg/kg*d. The positive control group A received 2 mg/kg*d of artesunate by stomach perfusion, while the positive control group B received 1 mg/kg*d of prednisone by stomach perfusion. Mice in the model and normal control group all received 0.4 ml/mouse normal saline by gavage. After 15 days of administration, animals in each group were taken blood by separating eyeballs on days 14, 21, 28, and after cultured in water bath at 37° C. for 1 h, the blood sample was centrifugated at 2000 r/min for 5 min, to draw serum for use. On day 21, after blood collection, animals were sacrificed by dislocation, followed by collection of liver and kidney, and they were placed in fixative solutions of electron microscope and light microscrope, respectively. Serum of mice was diluted at 1:100 with special buffer solution of Shenzhen Hengjia, and then 200 μL of diluted serum was respectively added to the reactive tank with corresponding number, cultured in the incubator at 37° C. for 30 min, and washed with the buffer solution four times, 2 min for each time; 200 μL of diluted biotin goat anti-mouse IgG (1:100) was added, cultured in the incubator at 37° C. for 30 min, and then washed with the buffer solution four times, 2 min for each time; 100 μL of diluted HRP-avidin (1:100) was added, cultured in the incubator at 37° C. for 30 min, and then washed as mentioned-above; reactive solutions A and B were added till appearance of positive bands, then washed with the buffer solution. Compared with the standard bands of ENA polypeptide antibody spectrum in the same kit, if the positive bands appeared at 28/29,13.5 ku polypeptide; 15,16.5,38 kupolypeptide; 52 kupolypeptide and 47/48,45 kupolypeptide, that can be determined as anti-Sm, anti-Rib, anti-ssA, and anti-ssB positive antibody. Serum was diluted with PBS at 1:40, then 20-30 μL of diluted serum was dropped into the scrobiculus of HEp-2 cell sheets, each cell sheet for each group. In the process of dropping serum, it should be noted that the surface of cell sheet can not be touched. After addition of serum, cell sheet was placed in wet box and kept for 30 min at room temperature (25° C.). […]

[2] = tested on: lupus erythematosus model mice (renal glomerular capsule wall epithelial cells); experiment: Electron microscope observation of kidney samples, lupus model mice; conditions: 21 days
Experimental: The back of mice was shaved and acutely exposed to Ultraviolet of 2 h/d*3 d, with a distance of 30 cm. After exposure to UV, 2.5 mg/kg of LPS was administrated once by ip, and after 24 h, the model was successfully established; the mice in the normal control group received normal saline via ip. 24 h after injection of LPS (ip), medicines were given to the model mice by intragastric administration. Chlorogenic acid test groups received high, middle, and low doses of medicines, by intragastric administration at a respective dosage of 10 mg/kg*d, 20 mg/kg*d, and 40 mg/kg*d. The positive control group A received 2 mg/kg*d of artesunate by stomach perfusion, while the positive control group B received 1 mg/kg*d of prednisone by stomach perfusion. Mice in the model and normal control group all received 0.4 ml/mouse normal saline by gavage. After 15 days of administration, animals in each group were taken blood by separating eyeballs on days 14, 21, 28, and after cultured in water bath at 37° C. for 1 h, the blood sample was centrifugated at 2000 r/min for 5 min, to draw serum for use. On day 21, after blood collection, animals were sacrificed by dislocation, followed by collection of liver and kidney, and they were placed in fixative solutions of electron microscope and light microscrope, respectively. On day 21, the sample used for observation under electron microscope was fixed in mixed stationary solution of 2% paraformaldehyde+0.25% glutaral for 4 h, rinsed with TBS, treated with 1% osmic acid, followed by fixation for 1 h, rinsed with buffer solution, dehydrated with acetone, dyed with uranyl acetate for 2 h, macerated in Epon812 and embedded, and cut into slices with LEICA ultramicrotome. The slices were stained with lead solution, and the sample was observed under transmission electron microscope when it was dry.

[3] = day 14, chlorogenic acid high dose
[4] = day 14, chlorogenic acid low dose
[5] = day 14, chlorogenic acid middle dose
[6] = day 21, chlorogenic acid high dose
[7] = day 21, chlorogenic acid low dose
[8] = day 21, chlorogenic acid middle dose
[9] = day 28, chlorogenic acid high dose
[10] = day 28, chlorogenic acid low dose
[11] = day 28, chlorogenic acid middle dose

For O=C(/C=C/c1ccc(O)c(O)c1)O[C@@H]1C[C@](O)(C(=O)O)C[C@@H](O)[C@H]1O [Chlorogenic acid, 3-O-caffeoylquinic acid], the Anti-Rib [1, 3] was “(+)”, the Anti-Sm [1, 3] was “(+)” and the Anti-ssA [1, 3] was “(+)”. The Anti-ssB [1, 3] was “(+)”, the Anti-Rib [1, 4] was “(+)” and the Anti-Sm [1, 4] was “(+)”. For the same compound, the Anti-ssA [1, 4] was “(+)”, the Anti-ssB [1, 4] was “(+)” and the Anti-Rib [1, 5] was “(+)”. The Anti-Sm [1, 5] was “(+)”, the Anti-ssA [1, 5] was “(+)” and the Anti-ssB [1, 5] was “(+)”. For the same compound, the Anti-Rib [1, 6] was “(+)”, the Anti-Sm [1, 6] was “(+)” and the Anti-ssA [1, 6] was “(+)”. The Anti-ssB [1, 6] was “(+)”, the Anti-Rib [1, 7] was “(+)” and the Anti-Sm [1, 7] was “(+)”. For the same compound, the Anti-ssA [1, 7] was “(+)”, the Anti-ssB [1, 7] was “(+)” and the Anti-Rib [1, 8] was “(+)”. The Anti-Sm [1, 8] was “(+)”, the Anti-ssA [1, 8] was “(+)” and the Anti-ssB [1, 8] was “(+)”. For the same compound, the Anti-Rib [1, 9] was “(−)”, the Anti-Sm [1, 9] was “(+)” and the Anti-ssA [1, 9] was “(−)”. The Anti-ssB [1, 9] was “(−)”, the Anti-Rib [1, 10] was “(+)” and the Anti-Sm [1, 10] was “(+)”. For the same compound, the Anti-ssA [1, 10] was “(+)”, the Anti-ssB [1, 10] was “(+)” and the Anti-Rib [1, 11] was “(−)”. For the same compound, the Anti-Sm [1, 11] was “(+)”, the Anti-ssA [1, 11] was “(+)” and the Anti-ssB [1, 11] was “(+)”. For the same compound, the “ENA polypeptide antibodies found positive (FIG. 1)” value ([1]; high dose of chlorogenic acid) was “anti-Sm, anti-ssA and anti-ssB bodies are positive”, the “ENA polypeptide antibodies found positive (FIG. 1)” value ([1]; low dose of chlorogenic acid) was “anti-Sm, anti-ssA and anti-ssB bodies are positive” and the “ENA polypeptide antibodies found positive (FIG. 1)” value ([1]; middle dose of chlorogenic acid) was “anti-Sm, anti-Rib, anti-ssA and anti-ssB bodies are positive”. For the same compound, the “fluorescence intensity of ANA (FIG. 2)” value (ANA; 14 days) was “decreases”, the “fluorescence intensity of ANA (FIG. 3)” value (ANA; 21 days) was “decreases” and the “fluorescence intensity of ANA (FIG. 4)” value (ANA; 28 days) was “decreases”. For the same compound, the “proliferative degree of renal glomerular capsule wall epithelial cells” value ([2]; chlorogenic acid (all dose groups)) was “somewhat relieved” and the “proliferative degree of glomerular capsule wall epithelial cells” value ([2]; high-dose group of chlorogenic acid) was “somewhat relieves; also recorded: the release degree in high dose group was the most obvious”.

— patent publication US10058525B2, “Application of chlorogenic acid in preparing medicines for treating lupus erythematosus” (SICHUAN JIUZHANG BIOLOGICAL SCIENCE AND TECHNOLOGY CO., LTD., priority 2015, dated 2018)
